Consider 14 molecules from US20050043315A1, “Aminopyrimidine compounds, processes for their preparation and pharmaceutical compositions containing them” (priority 2002, published 2005).

Regarding `CC(C)n1nc(-c2cnc(NC(=O)c3cccnc3)nc2-c2ccccc2)ccc1=O` [Example 175, N-[5-(1-isopropyl-6-oxo-1,6-dihydro-3-pyridazinyl)-4-phenyl-2-pyrimidinyl)nicotinamide], the melting point – broadly, the temperature, or range, at which the solid turns liquid – is 163 to 167 °C.

Take `CC(C)n1nc(-c2cnc(NC(=O)C(C)(C)C)nc2-c2ccccc2)ccc1=O` [Example 176, N-[5-(1-isopropyl-6-oxo-1,6-dihydro-3-pyridazinyl)-4-phenyl-2-pyrimidinyl]-2,2-dimethylpropanamide]: the melting point was in the range of 138 to 141 °C.

The molecule `CC(C)n1nc(-c2cnc(NC(=O)OCC(Cl)(Cl)Cl)nc2-c2ccccc2)ccc1=O` [Example 177, 2,2,2-trichloroethyl 5-(1-isopropyl-6-oxo-1,6-dihydro-3-pyridazinyl)-4-phenyl-2-pyrimidinylcarbamate] returned a melting point of 158 to 162 °C.

In turn, `CC(C)n1nc(-c2cnc(N(C(=O)c3ccccc3)C(=O)c3ccccc3)nc2-c2ccccc2)ccc1=O` [Example 178, N-benzoyl-N-[5-(1-isopropyl-6-oxo-1,6-dihydro-3-pyridazinyl)-4-phenyl-2-pyrimidinyl]benzamide] registered a melting point of 121 to 125 °C.

The molecule `CC(C)n1nc(-c2cnc(N(C(=O)c3ccc(F)cc3)C(=O)c3ccc(F)cc3)nc2-c2ccccc2)ccc1=O` [Example 179, 4-Fluoro-N-(4-fluorobenzoyl)-N-[5-(1-isopropyl-6-oxo-1,6-dihydro-3-pyridazinyl)-4-phenyl-2-pyrimidinyl]benzamide] displayed a melting point of 148 to 151 °C.

`CC(C)n1nc(-c2cnc(N(C(=O)c3ccc(Cl)cc3)C(=O)c3ccc(Cl)cc3)nc2-c2ccccc2)ccc1=O` [Example 180, 4-Chloro-N-(4-chlorobenzoyl)-N-[5-(1-isopropyl-6-oxo-1,6-dihydro-3-pyridazinyl)-4-phenyl-2-pyrimidinyl]benzamide] showed a melting point of 110 °C.

In turn, `CC(C)n1nc(-c2cnc(N(C(=O)c3ccc(C(F)(F)F)cc3)C(=O)c3ccc(C(F)(F)F)cc3)nc2-c2ccccc2)ccc1=O` [Example 183, N-[5-(1-isopropyl-6-oxo-1,6-dihydro-3-pyridazinyl)-4-phenyl-2-pyrimidinyl]-4-(trifluoromethyl)-N-[4-(trifluoromethyl)benzoyl]benzamide] yielded a melting point of 159 °C.

On to `CCOc1ccc(-c2nc(N)ncc2-c2ccc(=O)n(C(C)C)n2)cc1` [Example 188, 6-[2-amino-4-(4-ethoxyphenyl)-5-pyrimidinyl]-2-isopropyl-3(2H)-pyridazinone], for which the melting point stood at 204 °C.

`CCOc1ccccc1-c1nc(N)ncc1-c1ccc(=O)n(C(C)C)n1` [Example 189, 6-[2-Amino-4-(2-ethoxyphenyl)-5-pyrimidinyl]-2-isopropyl-3(2H)-pyridazinone] yielded a melting point of 185 °C.

`CCOc1cccc(-c2nc(N)ncc2-c2ccc(=O)n(C(C)C)n2)c1` [Example 190, 6-[2-Amino-4-(3-ethoxyphenyl)-5-pyrimidinyl]-2-isopropyl-3(2H)-pyridazinone] yielded a melting point of 142 °C.

`CCCOc1ccc(-c2nc(N)ncc2-c2ccc(=O)n(C(C)C)n2)cc1` [Example 191, 6-[2-Amino-4-(4-propoxyphenyl)-5-pyrimidinyl]-2-isopropyl-3(2H)-pyridazinone]: the melting point is 175 °C.

In the case of `CCCOc1ccccc1-c1nc(N)ncc1-c1ccc(=O)n(C(C)C)n1` [Example 192, 6-[2-Amino-4-(2-propoxyphenyl)-5-pyrimidinyl]-2-isopropyl-3(2H)-pyridazinone], the melting point stood at 145 °C.

Take `CCCOc1cccc(-c2nc(N)ncc2-c2ccc(=O)n(C(C)C)n2)c1` [Example 193, 6-[2-Amino-4-(3-propoxyphenyl)-5-pyrimidinyl]-2-isopropyl-3(2H)-pyridazinone]: the melting point turned out to be 122 °C.

Consider `CC(C)Oc1ccc(-c2nc(N)ncc2-c2ccc(=O)n(C(C)C)n2)cc1` [Example 194, 6-[2-Amino-4-(4-isopropoxyphenyl)-5-pyrimidinyl]-2-isopropyl-3(2H)-pyridazinone], for which the melting point was determined as 164 °C.
